Test results: US20210401768A1, “FORMULATIONS OF CANNABINOIDS FOR THE TREATMENT OF DERMATITIS AND INFLAMMATORY SKIN DISEASES” (Botanix Pharmaceuticals Ltd., priority 2017, published 2021)

Legend:
[1] = Discoloration of CBD solutions and formulations on standing; format: physicochemical; details: end of day
Source text: The CBD2 material dissolved like the CBD1 therefore the CBD2 is CBD without the discoloration properties of CBD1.

[2] = test system: cardiac inflammation produced by doxorubicin; details: 5 mg/kg i.v. once daily for 4 weeks, rats; cited from earlier work
[3] = test system: anandamide; details: rat basophilic leukemia cells; cited from earlier work
[4] = in ethanol, reported value; cited from earlier work
[5] = test system: ovalbumin-induced airway obstruction; details: 1 mg/kg i.v., sensitized guinea-pigs; cited from earlier work
[6] = Solubility of CBD in the Franz cell Receptor Fluid; format: physicochemical; details: aqueous with cosolvent or surfactant or cyclodextrin; PBS, 0.01 wt % NaN3, 4 wt % hydroxypropyl-β-cyclodextrin, 1 wt % Brij O20
[7] = Solubility of CBD in solvents (weight to weight); format: physicochemical
Method: First, the solubility of cannabidiol (CBD) was assessed. The powder looked granulated under the microscope. […] The conclusions from the solubility studies were that OA and IPA were very good solvents and it was surprising that IPA was so much better than ethanol.
Solubility studies: CBD dissolved at the 10% level in AE and barely 9.5% in IPM. Further exploration was not conducted due to the small amount of drug API available for non-GMP work. CBD is soluble greater than 10% but probably not in excess of 20%, as the time to dissolve additional CBD was taking considerably longer.

[8] = molecular target: T1, human vanilloid receptor type 1 (VR1) (Homo sapiens, UniProt Q8NER1); details: HEK-hVR1 transfected cells; cited from earlier work
T1 construct: expressed in transfected cells; host or cells: HEK cells transfected with hVR1 (HEK-hVR1)
T1 sequence (Q8NER1 whole entry): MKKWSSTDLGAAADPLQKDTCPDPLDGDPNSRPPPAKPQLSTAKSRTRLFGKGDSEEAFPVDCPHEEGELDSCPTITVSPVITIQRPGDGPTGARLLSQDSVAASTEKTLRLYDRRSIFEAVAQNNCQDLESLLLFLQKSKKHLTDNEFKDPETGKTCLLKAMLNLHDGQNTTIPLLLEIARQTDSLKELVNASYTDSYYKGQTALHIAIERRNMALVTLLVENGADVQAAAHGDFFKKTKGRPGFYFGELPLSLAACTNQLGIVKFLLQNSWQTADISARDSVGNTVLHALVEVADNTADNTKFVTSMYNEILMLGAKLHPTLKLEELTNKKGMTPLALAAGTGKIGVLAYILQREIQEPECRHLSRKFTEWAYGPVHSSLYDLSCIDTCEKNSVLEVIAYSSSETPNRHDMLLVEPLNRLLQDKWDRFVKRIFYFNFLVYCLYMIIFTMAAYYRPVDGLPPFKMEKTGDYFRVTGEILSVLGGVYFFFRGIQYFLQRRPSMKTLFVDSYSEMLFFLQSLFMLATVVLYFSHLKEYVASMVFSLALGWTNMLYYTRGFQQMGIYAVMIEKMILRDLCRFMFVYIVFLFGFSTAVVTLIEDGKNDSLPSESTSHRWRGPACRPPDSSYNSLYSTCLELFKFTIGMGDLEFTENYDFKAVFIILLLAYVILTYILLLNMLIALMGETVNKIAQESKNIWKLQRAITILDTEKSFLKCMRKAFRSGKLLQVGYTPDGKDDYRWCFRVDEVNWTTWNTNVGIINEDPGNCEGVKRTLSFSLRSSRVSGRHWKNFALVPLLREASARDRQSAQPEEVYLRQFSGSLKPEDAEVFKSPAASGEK

| Structure (SMILES) | discoloration of solution [1] | effect on cardiac inflammation produced by doxorubicin [2] | inhibition of anandamide [3] | reported solubility of CBD [4] | effect on ovalbumin-induced airway obstruction [5] | solubility [6] | solubility (weight to weight) of CBD ([7]; in ethanol) | solubility (weight to weight) of CBD ([7]; in hexamethyldisiloxane (HDS)) | solubility (weight to weight) of CBD ([7]; in isopropyl alcohol (IPA)) | solubility of CBD ([7]; in isopropyl myristate (IPM)) | solubility (weight to weight) of CBD ([7]; in mineral oil) | solubility (weight to weight) of CBD ([7]; in oleyl alcohol (OA), did not go higher in studies) | solubility (weight to weight) of CBD ([7]; in propylene glycol (PG)) | stimulation of VR1 [8] |
| --- | --- | --- | --- | --- | --- | --- | --- | --- | --- | --- | --- | --- | --- | --- |
| C=C(C)[C@@H]1CCC(C)=C[C@H]1c1c(O)cc(CCCCC)cc1O [CBD1] | colored by the end of the day | – | – | – | – | – | – | – | – | – | – | – | – | – |
| C=C(C)[C@@H]1CCC(C)=C[C@H]1c1c(O)cc(CCCCC)cc1O [CBD2] | None of the CBD2 solutions were colored at the end of day 1 | – | – | – | – | – | – | – | – | – | – | – | – | – |
| C=C(C)C1CCC(C)=CC1c1c(O)cc(CCCCC)cc1O (stereo not drawn) [CBD, 2-[3-methyl-6-(1-methylethenyl)-2-cyclohexen-1-yl]-5-pentyl-1,3-benzenediol] | – | attenuated cardiac inflammation | inhibit anandamide | 3.5% | attenuated ovalbumin-induced airway obstruction | > 50 µg/mL | 6-7% | 3-4% | greater than 14% | ~9.5% | 3-4% | greater than 8% | 6-7% | maximum effect similar in efficacy to that of capsaicin |
